# In patent publication US4178442A, “Novel cinnamoyles piperazines and homopiperazines, the method of preparing them and their application in therapeutics” (Delalande S. A., priority 1977, dated 1979):
# Where a name gives a salt, the structure may show the parent alone. Read-outs that look alike come from different tables or passages of the source.
# Key:
# anaesthetized dog [1] = assay: Activity on the cerebral circulation, anaesthetized dog; type: in vivo; conditions: for change in vivo at 2 mg/kg / change in vivo at 5 mg/kg / change in vivo at 2.5 mg/kg: Canis lupus familiaris, iv; for Increase of the extraction of cerebral oxygen: (A-V)/A
# Description: The activity on the cerebral circulation was tested on an anaesthetized dog (sodium pentobarbital 30 mg/kg/i.v.). The vertebral artery flow was measured by means of an electromagnetic perivascular or ultrasonic Doppler effect probe. The intracerebral vascular resistance was estimated by the back pressure of the internal carotid artery. […] The increase in the extraction of cerebral oxygen was estimated by the following equation:(A-V)/A in which: A represents the volume of oxygen in the arterial blood (% volume) measured by hemoreflectometry (KIPP and ZONEN's apparatus) and quantity determination of the haemoglobin (DRABKIN's method). V represents the volume of oxygen in the cerebral venous blood (internal maxillary vein). […] It should be noted that the compounds tested were injected intravenously (rapid injection).
# anaesthetized dog [2] = assay: Activity on the peripheral circulation, anaesthetized dog; type: in vivo
# Description: The activity on the peripheral circulation was studied on an anaesthetized dog (sodium pentobarbital 30 mg/kg/i.v.). The femoral artery flow was measured by means of an electromagnetic or ultrasonic perivascular Doppler effect probe.
# anaesthetized dog [3] = assay: Antiangorous activity on anaesthetized dog: consumption of oxygen in the left ventricule and cardiac effort (KATZ's index); type: in vivo; conditions: for inhibition in vivo at 2.5 mg/kg / inhibition in vivo at 2.3 mg/kg: Canis lupus familiaris, iv
# In short: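 Katz index taken as mean arterial pressure multiplied by ECG (D2) heart rate, and myocardial O2 use as coronary sinus flow via modified Morawitz cannula times coronary arteriovenous O2 difference. Animals: pentobarbital-anaesthetized dogs (30 mg/kg i.v.), test compounds infused slowly intravenously.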
# in vivo = conditions: iv, read-out: Toxicity: LD50
# Excerpt: *LD50 or percentage of mortality which is given between brackets
# [4] = dog, 2 mg/kg i.v. rapid injection
# [5] = dog, 10 mg/kg i.v. slow perfusion
# [6] = 2.5 mg/kg i.v. slow perfusion, read-out: Diminution in consumption of O2
# [7] = 2.5 mg/kg i.v. slow perfusion, read-out: Diminution in the cardiac effort (IK)
# [8] = Canis lupus familiaris, iv, dog, 5 mg/kg i.v. slow perfusion, read-out: Average arterial pressure
# [9] = Canis lupus familiaris, iv, dog, 5 mg/kg i.v. slow perfusion, read-out: Femoral artery flow
# [10] = dog, 5 mg/kg i.v. slow perfusion
# [11] = dog, 5 mg/kg i.v. rapid injection, read-out: Internal carotid artery back pressure
# [12] = dog, 5 mg/kg i.v. rapid injection, read-out: Vertebral artery flow
# [13] = dog, 5 mg/kg i.v. rapid injection
# [14] = dog, 2,5 mg/kg i.v. rapid injection, read-out: Internal carotid artery back pressure
# [15] = dog, 2,5 mg/kg i.v. rapid injection, read-out: Systemic average arterial pressure
# [16] = dog, 2,5 mg/kg i.v. rapid injection
# [17] = dog, 2,5 mg/kg i.v. slow perfusion
compound,measurement,setting,value
COc1ccccc1OCC(O)CN1CCN(C(=O)/C=C/c2cc(OC)c(OC)c(OC)c2)CC1 (stereo not drawn) [760 392],change in vivo at 2 mg/kg,"anaesthetized dog [1]; dog, 2 mg/kg i.v. rapid injection, read-out: Internal carotid artery back pressure",-79%
same,change in vivo at 2 mg/kg,"anaesthetized dog [1]; dog, 2 mg/kg i.v. rapid injection, read-out: Systemic average arterial pressure",-39%
same,change in vivo at 2 mg/kg,"anaesthetized dog [1]; dog, 2 mg/kg i.v. rapid injection, read-out: Vertebral artery flow",186%
same,Internal carotid artery back pressure: in time,anaesthetized dog [1]; [4],> 30 min
same,Systemic average arterial pressure: in time,anaesthetized dog [1]; [4],30 min
same,Vertebral artery flow: in time,anaesthetized dog [1]; [4],< 30 min
same,change in vivo at 10 mg/kg,"anaesthetized dog [2]; Canis lupus familiaris, iv, dog, 10 mg/kg i.v. slow perfusion, read-out: Average arterial pressure",-28%
same,change in vivo at 10 mg/kg,"anaesthetized dog [2]; Canis lupus familiaris, iv, dog, 10 mg/kg i.v. slow perfusion, read-out: Femoral artery flow",56%
same,Average arterial pressure: in time,anaesthetized dog [2]; [5],38 min
same,Femoral artery flow: in time,anaesthetized dog [2]; [5],45 min
same,Diminution in consumption of O2: in time,anaesthetized dog [3]; 2.5 mg/kg i.v. slow perfusion,30 min
same,Diminution in the cardiac effort (IK): in time,anaesthetized dog [3]; 2.5 mg/kg i.v. slow perfusion,30 min
same,inhibition in vivo at 2.5 mg/kg,anaesthetized dog [3]; [6],31%
same,inhibition in vivo at 2.5 mg/kg,anaesthetized dog [3]; [7],11%
COc1cc(/C=C/C(=O)N2CCN(CC(O)COc3ccc(C#N)cc3)CC2)cc(OC)c1OC (stereo not drawn) [760 501],change in vivo at 5 mg/kg,anaesthetized dog [2]; [8],-22%
same,change in vivo at 5 mg/kg,anaesthetized dog [2]; [9],61%
same,Average arterial pressure: in time,anaesthetized dog [2]; [10],35 min
same,Femoral artery flow: in time,anaesthetized dog [2]; [10],23 min
same,Diminution in consumption of O2: in time,anaesthetized dog [3]; 2.3 mg/kg i.v. slow perfusion,45 min
same,Diminution in the cardiac effort (IK): in time,anaesthetized dog [3]; 2.3 mg/kg i.v. slow perfusion,15 min
same,inhibition in vivo at 2.3 mg/kg,"anaesthetized dog [3]; 2.3 mg/kg i.v. slow perfusion, read-out: Diminution in consumption of O2",75%
same,inhibition in vivo at 2.3 mg/kg,"anaesthetized dog [3]; 2.3 mg/kg i.v. slow perfusion, read-out: Diminution in the cardiac effort (IK)",4%
COc1cc(/C=C/C(=O)N2CCN(CC(O)COc3ccccc3C)CC2)cc(OC)c1OC (stereo not drawn) [760 502],change in vivo at 5 mg/kg,anaesthetized dog [2]; [8],-22%
same,change in vivo at 5 mg/kg,anaesthetized dog [2]; [9],190%
same,Average arterial pressure: in time,anaesthetized dog [2]; [10],15 min
same,Femoral artery flow: in time,anaesthetized dog [2]; [10],35 min
C=CCOc1ccccc1OCC(O)CN1CCN(C(=O)/C=C/c2cc(OC)c(OC)c(OC)c2)CC1 (stereo not drawn) [760 503],change in vivo at 5 mg/kg,anaesthetized dog [2]; [8],-6%
same,change in vivo at 5 mg/kg,anaesthetized dog [2]; [9],87%
same,Average arterial pressure: in time,anaesthetized dog [2]; [10],15 min
same,Femoral artery flow: in time,anaesthetized dog [2]; [10],15 min
COc1cc(/C=C/C(=O)N2CCN(CC(O)COc3cccc(Cl)c3)CC2)cc(OC)c1OC (stereo not drawn) [760 504],change in vivo at 5 mg/kg,anaesthetized dog [2]; [8],-23%
same,change in vivo at 5 mg/kg,anaesthetized dog [2]; [9],49%
same,Average arterial pressure: in time,anaesthetized dog [2]; [10],10 min
same,Femoral artery flow: in time,anaesthetized dog [2]; [10],15 min
COc1cc(/C=C/C(=O)N2CCN(CC(O)COc3ccc(C)cc3)CC2)cc(OC)c1OC (stereo not drawn) [760 505],change in vivo at 5 mg/kg,anaesthetized dog [1]; [11],-38%
same,change in vivo at 5 mg/kg,"anaesthetized dog [1]; dog, 5 mg/kg i.v. rapid injection, read-out: Systemic average arterial pressure",-11%
same,change in vivo at 5 mg/kg,anaesthetized dog [1]; [12],113%
same,Internal carotid artery back pressure: in time,anaesthetized dog [1]; [13],10 min
same,Systemic average arterial pressure: in time,anaesthetized dog [1]; [13],20 min
same,Vertebral artery flow: in time,anaesthetized dog [1]; [13],10 min
same,change in vivo at 5 mg/kg,anaesthetized dog [2]; [8],-21%
same,change in vivo at 5 mg/kg,anaesthetized dog [2]; [9],24%
same,Average arterial pressure: in time,anaesthetized dog [2]; [10],23 min
same,Femoral artery flow: in time,anaesthetized dog [2]; [10],15 min
COc1cc(/C=C/C(=O)N2CCN(CC(O)COc3cccc(C)c3)CC2)cc(OC)c1OC (stereo not drawn) [760 521],change in vivo at 5 mg/kg,anaesthetized dog [2]; [8],-19%
same,change in vivo at 5 mg/kg,anaesthetized dog [2]; [9],34%
same,Average arterial pressure: in time,anaesthetized dog [2]; [10],30 min
same,Femoral artery flow: in time,anaesthetized dog [2]; [10],15 min
"COc1cc(/C=C/C(=O)N2CCN(CC(O)CN(C)c3ccccc3)CC2)cc(OC)c1OC (stereo not drawn) [770 495, 1-(3-N-methylanilino-2-hydroxy)propyl-4-(3,4,5-trimethoxycinnamoyl)piperazine, hydrated oxalate]",change in vivo at 2.5 mg/kg,anaesthetized dog [1]; [14],-17%
same,change in vivo at 2.5 mg/kg,anaesthetized dog [1]; [15],-20%
same,Internal carotid artery back pressure: in time,anaesthetized dog [1]; [16],60 min
same,Systemic average arterial pressure: in time,anaesthetized dog [1]; [16],20 min
same,Vertebral artery flow: in time,anaesthetized dog [1]; [16],60 min
same,Increase of the extraction of cerebral oxygen,anaesthetized dog [1]; [16],+188%
same,Diminution in consumption of O2: in time,anaesthetized dog [3]; 2.5 mg/kg i.v. slow perfusion,45 min
same,Diminution in the cardiac effort (IK): in time,anaesthetized dog [3]; 2.5 mg/kg i.v. slow perfusion,30 min
same,inhibition in vivo at 2.5 mg/kg,anaesthetized dog [3]; [6],74%
same,inhibition in vivo at 2.5 mg/kg,anaesthetized dog [3]; [7],43%
same,LD50,in vivo,175 mg/kg
"C(=C\c1ccccc1)/CN1CCN(C(c2ccccc2)c2ccccc2)CC1 [Cinnarizine, cinnarizine, reference compound]",change in vivo at 5 mg/kg,anaesthetized dog [1]; [11],-25%
same,change in vivo at 5 mg/kg,anaesthetized dog [1]; [12],130%
same,Internal carotid artery back pressure: in time,anaesthetized dog [1]; [13],30 min
same,Vertebral artery flow: in time,anaesthetized dog [1]; [13],30 min
same,Increase of the extraction of cerebral oxygen,anaesthetized dog [1]; [13],0%
same,change in vivo at 5 mg/kg,anaesthetized dog [2]; [9],100%
same,Femoral artery flow: in time,anaesthetized dog [2]; [10],30 min
"CCN(CC)CCOC(=O)C(Cc1cccc2ccccc12)CC1CCCO1 (stereo not drawn) [Naphtidrofuryl, naphtidrofuryl, reference compound]",change in vivo at 2.5 mg/kg,anaesthetized dog [1]; [14],-26%
same,change in vivo at 2.5 mg/kg,anaesthetized dog [1]; [15],-50%
same,change in vivo at 2.5 mg/kg,"anaesthetized dog [1]; dog, 2,5 mg/kg i.v. rapid injection, read-out: Vertebral artery flow",100%
same,Internal carotid artery back pressure: in time,anaesthetized dog [1]; [16],5 min
same,Systemic average arterial pressure: in time,anaesthetized dog [1]; [16],2 min
same,Vertebral artery flow: in time,anaesthetized dog [1]; [16],5 min
same,Increase of the extraction of cerebral oxygen,anaesthetized dog [1]; [16],-50%
same,change in vivo at 2.5 mg/kg,"anaesthetized dog [2]; Canis lupus familiaris, iv, dog, 2,5 mg/kg i.v. slow perfusion, read-out: Average arterial pressure",-50%
same,change in vivo at 2.5 mg/kg,"anaesthetized dog [2]; Canis lupus familiaris, iv, dog, 2,5 mg/kg i.v. slow perfusion, read-out: Femoral artery flow",100%
same,Average arterial pressure: in time,anaesthetized dog [2]; [17],2 min
same,Femoral artery flow: in time,anaesthetized dog [2]; [17],5 min
"COc1ccc(Cc2nccc3cc(OC)c(OC)cc23)cc1OC [Papaverine, papaverine, reference compound]",change in vivo at 2.5 mg/kg,anaesthetized dog [1]; read-out: Internal carotid artery back pressure,-45%
same,change in vivo at 2.5 mg/kg,anaesthetized dog [1]; read-out: Vertebral artery flow,100%
same,Internal carotid artery back pressure: in time,anaesthetized dog [1]; [16],5 min
same,Vertebral artery flow: in time,anaesthetized dog [1]; [16],6 min
same,Increase of the extraction of cerebral oxygen,anaesthetized dog [1]; [16],0%
same,change in vivo at 2 mg/kg,"anaesthetized dog [2]; Canis lupus familiaris, iv, read-out: Femoral artery flow",100%
same,Femoral artery flow: in time,"anaesthetized dog [2]; dog, 2 mg/kg i.v. slow perfusion",1 min
